According to patent US9119845B2, “Method for the treatment of neurological disorders by enhancing the activity of beta-glucocerebrosidase” (Amicus Therapeautics, Inc., priority 2006, dated 2015):
Counter-ions that a name gives are not always drawn. Like-named read-outs stand apart in the source and are kept apart here.

Legend:
[1] = Phase I studies in healthy volunteers: pharmacokinetics of oral IFG tartrate; format: in vivo, human; conditions: for half-life: both sexes, human, plasma
Description: (§1) In a first-in-human single ascending dose study (1a), doses of 8, 25, 75, 150 (two cohorts), and 300 mg were administered (6 active, 2 placebo in each cohort). In a multiple ascending dose study (1b), doses of 25, 75, and 225 mg were administered daily for seven days (6 active, 2 placebo in each cohort). In both studies, of the eight subjects in each group; six were randomized to receive IFG tartrate, and two subjects received placebo. Subjects were confined from the evening of day-1 until 24 hrs after completion of dosing. In the phase 1a study subjects returned at 48 hrs (PK sampling) and 7 days (safety follow-up) following dosing. In the phase 1b study subjects returned at 48 h (PD sampling), 7 days (PD sampling and safety follow-up), and 14 days (PD sampling) following the last dose
Subjects were healthy male and female volunteers between 19 and 55 years of age (inclusive) consisting of members of the community at large.
Blood samples (10 mL each) were collected in blood collection tubes containing EDTA before dosing was determined at regular intervals for the phas 1a during 48 hr following dosing. In the phase 1b study a full IFG tartrate pharmacokinetic profile was determined for 24 hr following the first dose, Cmin values were obtained pre-dose on day 6 and 7, and another full profile was determined for 24 hr following the final, day 7, dose.
(§2) GCase activity was determined pre-dose on days 1, 3, 5, 7, 9, 14, and 21. Blood samples were cooled in an ice bath and centrifuged under refrigeration as soon as possible. Plasma samples were divided into two aliquots and stored at […] pending assay. At the end of the study, all samples were transferred to MDS Pharma Services Analytical Laboratories (Lincoln) for analysis.

α-synuclein [2] = assay: α-synuclein immunohistochemistry in brains of transgenic mice over-expressing human α-synuclein; format: in vivo, mouse
Description: 48 transgenic animals (male and female) were allocated to 6 groups (n=8) at an age of 5 to 6 weeks concerning baseline and 3 to 4 weeks, respectively concerning all other treatment groups at treatment start. One group of transgenic animals served as baseline group (5 weeks old) and was sacrificed untreated on day 0. One group of transgenic animals was treated with vehicle.
Mice (ages 3-4 weeks) were treated once daily (orally) at either 2 mg/kg; 20 mg/kg; or 200 mg/kg of IFG tartrate for 3 months. One group also was treated once every other day at 20 mg/kg.
Animals of the baseline group were sacrificed at an age of 5 weeks. All other animals were sacrificed at the end of the 3 months treatment period and blood for preparation of serum and macrophages as well as lung, brain and CSF were extracted. Therefore, all mice were sedated by standard inhalation anesthesia (Isofluran, Baxter). Cerebrospinal fluid was obtained by blunt dissection and exposure of the foramen magnum. Upon exposure, a Pasteur pipette was inserted to the approximate depth of 0.3-1 mm into the foramen magnum. CSF was collected by suctioning and capillary action until flow fully ceases. CSF was immediately frozen and kept at −80° C.
The brains were removed and hemisected. The right hemispheres of all mice were immersion fixed in freshly produced 4% paraformaldehyde/PBS (pH 7.4) for one hour at room temperature. Thereafter brains were transferred to a 15% sucrose PBS solution for 24 hours to ensure cryoprotection. On the next day brains were frozen in liquid isopentane and stored at −80° C. until used for histological investigations. To determine the effects of the IFG-tartrate treatment from 8 animals per group 10 μm-thick cryosections were cut for determination of alpha-synuclein pathology. All organs and tissues mentioned were sampled and from specific brain regions i.e. hippocampus, midbrain, frontal cortex and striatum of one hemibrain were extracted and frozen. The other brain half was processed for histological evaluation.
For evaluation of the number of α-synuclein positive cells and Lewy body like inclusions an immunohistochemical staining was carried out using the monoclonal human alpha-synuclein specific antibody (Alexis®; Cat #804-258-L001), dilution 1:5, detected with secondary Cy2 antibody (Jackson Immunoresearch®). The number of alpha-synuclein positive cells in five different layers, one slice per layer, was counted for evaluation in the whole hippocampus and cortex separately.
Briefly, samples were washed for 10 min with PBS at room temperature, followed by fixing for 30 min at room temperature with 4% paraformaldehyde, followed by washing 2 times for 5 min each with PBS at room temperature. For Proteinase K-treated sections, sections were incubated in PBS containing 10 μg/ml proteinase-K for 10 minutes at room temperature. Next, samples were incubated for 15 min at room temperature with blocking solution to block endogenous peroxidase, followed by two more 5 min washes with PBS. Samples were then incubated for 60 min at room temperature with a blocking reagent to block non-specific binding, followed by two more 5 min washes with PBS. Samples were then incubated with M.O.M. diluent for 5 min at room temperature, followed by incubation with the primary antibody (dilution 1:5 in M.O.M. diluent) for 60 min with at room temperature.
After an hour, samples were washed 2 times for 5 min with PBS at room temperature, and incubated for another 60 min at room temperature with blocking reagent. Following two washes, samples were incubated with secondary Ab Cy 2-Goat Anti-Rat (Dilution 1:200 in M.O.M.) for 60 minutes at room temperature, in the absence of light. Samples were then washed for 5 min with PBS, for 5 min with sterile, molecular-biology grade water, and covered with polyvinyl alcohol.
For evaluation of the α-synuclein immunoreactivity, specialized image analysis software (Image Pro Plus, version 4.5.1.29) was used. […]

[3] = Phase I studies in healthy volunteers: safety and tolerability; format: in vivo, human; conditions: both Phase I studies
Description: as §1, with “last dose […]” for “last dose”
Safety was determined by evaluating vital signs, laboratory parameters (serum chemistry, hematology, and urinalysis), physical examination and by recording adverse events during the Treatment Period.
Safety data including laboratory evaluations, physical exams, adverse events, ECG monitoring and vital signs assessments were summarized by treatment group and point of time of collection. Descriptive statistics (arithmetic mean, standard deviation, median, minimum and maximum) were calculated for quantitative safety data as well as for the difference to baseline. […]

GCase [4] = target: T1, GCase (Homo sapiens (Human), UniProt P04062); assay: Phase I multiple-dose study: GCase enzymatic activity in healthy volunteers; format: in vivo; conditions: dose-related, during treatment period, FIG. 2
Description: as §1, §2

wild-type GCase = wild-type GCase (Mus musculus (Mouse), UniProt P17439); assay: In vivo GCase activity in normal C57BL6 mice upon treatment with IFG
Description: This Example provides information on the effects of isofagomine, a GCase-specific chaperone on mice. IFG were administered to the mice at 200 mg/kg/day; organs and plasma were collected 4 weeks after initiation of the study. Ten male C57BL6 (25 g) mice per group were used. The drug was be given in the drinking water, therefore water consumption was monitored daily.
In the control group (0 mg/kg/day), the mice were dosed daily in the drinking water (no drug) and divided into two groups. Ten animals were euthanized after 4 weeks of treatment, blood was collected from the descending aorta or vena cava, and tissues were harvested and then necropsied.
In the test group, 10 mice were dosed daily in the drinking water with an administration aim of 200 mg/kg/day.
The blood samples were drawn into lithium heparin and spun for plasma. After bleeding, the spleen, lung, brain and liver were removed and placed into vials. The vials were put into dry ice for rapid freezing. The tissues and plasma were then analyzed for tissue levels of GCase.
Small portions of tissue were removed and added to 500 μl lysis buffer (20 mM sodium citrate and 40 mM disodium hydrogen phosphate, pH 4.0, including 0.1% Triton X-100). Tissues were then homogenized using a microhomogenizer for a brief time, followed by centrifugation at 10,000 rpm for 10 minutes at 4° C. Supernatants were transferred to a new tube and used for the enzyme assay.
The enhancement ratio is equal to the activity with the compound over the activity without the compound.

GCase [5] = target: T1, GCase; assay: biochemical
α-galactosidase A = α-galactosidase A (Homo sapiens (Human), UniProt P06280); conditions: healthy volunteers, 50 mg b.i.d. and 150 mg b.i.d.; cited from earlier work
GCase [6] = target: T1, GCase; conditions: read-out: IC50 for GCase; printed in synthesis headings
α-synuclein [7] = assay: α-synuclein accumulation in brains of V394L homozygous knock-in mice treated with CBE; format: in vivo, mouse; conditions: CBE daily intraperitoneally for 30 days
Description: Mice homozygous for the point mutations D409H or V394L and expressing a low level of saposin C in a prosaposin knock-out background, were analyzed for accumulation of α-synuclein in the brain. These mice have been reported to accumulate glucosylceramide in the brain. Mice homozygous for the point mutations V394L only, were analyzed for α-synuclein accumulation with and without CBE treatment. […] Mice were administered CBE daily by interperitonally injection for 30 consequitive days ([…] calculated from the total weight of the mouse) and brains were analyzed by immunohistochemistry for accumulation of α-synuclein.
Brain tissue was frozen and fixed for immunohistochemistry with 4% paraformaldehyde and serial sections were co-labelled with anti-human α-synuclein (ab1903; Abcam, Cambridge, Mass.) and rabbit anti-ubiquitin (ab7780; Abcam, Cambridge, Mass.).

[8] = normal C57BL6 mice, 200 mg/kg/day in drinking water, FIG. 1

T1 sequence (P04062 40-536): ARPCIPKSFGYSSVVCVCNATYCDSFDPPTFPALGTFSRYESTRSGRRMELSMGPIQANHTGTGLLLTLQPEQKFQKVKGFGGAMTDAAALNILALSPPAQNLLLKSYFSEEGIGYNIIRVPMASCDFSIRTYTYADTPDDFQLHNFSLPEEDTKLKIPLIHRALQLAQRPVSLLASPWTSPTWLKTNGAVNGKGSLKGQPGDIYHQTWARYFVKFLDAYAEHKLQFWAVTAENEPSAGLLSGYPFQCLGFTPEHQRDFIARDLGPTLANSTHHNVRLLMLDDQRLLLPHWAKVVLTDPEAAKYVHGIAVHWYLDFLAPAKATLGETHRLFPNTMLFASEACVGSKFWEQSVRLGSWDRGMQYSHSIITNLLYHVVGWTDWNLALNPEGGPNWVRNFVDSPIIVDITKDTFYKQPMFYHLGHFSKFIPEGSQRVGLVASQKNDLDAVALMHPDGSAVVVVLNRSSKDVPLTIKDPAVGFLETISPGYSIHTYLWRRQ
wild-type GCase, sequence (P17439 20-515): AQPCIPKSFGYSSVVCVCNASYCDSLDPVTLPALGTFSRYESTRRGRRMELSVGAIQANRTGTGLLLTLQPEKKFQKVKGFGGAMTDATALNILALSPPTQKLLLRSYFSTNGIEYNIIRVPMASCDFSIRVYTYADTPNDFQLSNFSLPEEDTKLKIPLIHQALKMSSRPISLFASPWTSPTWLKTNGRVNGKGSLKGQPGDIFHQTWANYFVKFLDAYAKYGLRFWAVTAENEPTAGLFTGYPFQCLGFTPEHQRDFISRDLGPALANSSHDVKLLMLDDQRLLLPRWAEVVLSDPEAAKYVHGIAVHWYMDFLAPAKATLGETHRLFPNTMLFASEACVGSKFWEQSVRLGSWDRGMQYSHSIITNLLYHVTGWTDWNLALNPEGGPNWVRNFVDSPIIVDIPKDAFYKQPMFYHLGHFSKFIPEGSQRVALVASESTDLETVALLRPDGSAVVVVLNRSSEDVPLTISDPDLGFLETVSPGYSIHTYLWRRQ
α-galactosidase A, sequence (P06280 32-429): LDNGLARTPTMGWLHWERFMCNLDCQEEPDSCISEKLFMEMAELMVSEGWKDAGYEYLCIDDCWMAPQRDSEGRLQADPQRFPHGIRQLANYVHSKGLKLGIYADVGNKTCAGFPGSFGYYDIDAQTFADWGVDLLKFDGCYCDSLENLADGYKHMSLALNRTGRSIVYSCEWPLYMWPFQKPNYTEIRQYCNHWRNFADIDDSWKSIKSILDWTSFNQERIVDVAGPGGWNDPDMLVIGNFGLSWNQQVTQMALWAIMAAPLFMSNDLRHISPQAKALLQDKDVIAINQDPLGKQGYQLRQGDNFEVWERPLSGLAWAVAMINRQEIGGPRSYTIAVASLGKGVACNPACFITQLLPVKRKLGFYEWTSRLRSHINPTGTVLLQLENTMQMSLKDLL

For `OC[C@H]1CNC[C@@H](O)[C@@H]1O` [isofagomine tartrate], the half-life ([1]; single-dose study, oral, read-out: plasma elimination half-life (converted)) was 14 h, the “systemic exposure via the oral route” value ([1]; healthy volunteers, oral) was “good systemic exposure” and the “pharmacokinetic behavior and accumulation after 7 days of oral administration” value ([1]; multiple-dose study, 25, 75, 225 mg daily for seven days) was “linear with dose, with no unexpected accumulation”. For the same compound, the “plasma AUC and Cmax versus dose” value ([1]; single-dose study, 8 to 300 mg oral) was “linearly correlated with administered dose”, the “time at which mean plasma levels peaked” value ([1]; single-dose study, oral) was 3.4 h and the “α-synuclein positive cell load versus baseline, both regions averaged” value (α-synuclein [2]; 2 mg/kg daily for 3 months, p>0.05 versus baseline) was “prevented mice from the age-accompanied increase of pathology”. For the same compound, the “number of α-synuclein immunoreactive cells in the hippocampus versus vehicle-treated controls” value (α-synuclein [2]; 2 mg/kg once daily orally for 3 months, p<0.05, FIG. 6B) was “reduced the number of immunoreactive cells in the hippocampus significantly”, the “α-synuclein pathology versus controls at 20 mg dose” value (α-synuclein [2]; 20 mg/kg daily or every other day for 3 months) was “not effective versus controls” and the “accumulation of Proteinase K resistant α-synuclein aggregates” value (α-synuclein [2]; 20 mg/kg, 3 months, single responding animal, FIG. 5) was “prevents the accumulation of these α-synuclein aggregates”. For the same compound, the “qualitative α-synuclein staining in cortex and hippocampus” value (α-synuclein [2]; 2 and 20 mg/kg b.w. daily, some of the treated animals, FIGS. 3 and 4) was “strongly decreased background and decreased α-synuclein positive cell numbers”, the “α-synuclein pathology in the cortex” value (α-synuclein [2]; oral treatment for 3 months, FIG. 6A) was “did not reach significance level” and the serious adverse events [3] was “No serious adverse events occurred”. The tolerability ([3]; all doses) was “generally well tolerated”.

For `OC[C@H]1CNC[C@@H](O)[C@@H]1O` [IFG, (3R,4R,5R)-5-(hydroxymethyl)-3,4-piperidinediol], the “increase in GCase enzyme levels above baseline” value (GCase [4]) was “approximately 3.5 fold”, the half-life ([1]; oral, repeated doses of 25 to 225 mg, read-out: mean half-lives) was 5.14 to 19.9 h and the “accumulation based on AUC and Cmax comparisons on Day 1 and Day 7” value ([1]; repeated doses of 25 to 225 mg) was “Minimal accumulation”. For the same compound, the “GCase levels in brain” value (wild-type GCase; [8]) was “increased”, the “GCase levels in liver” value (wild-type GCase; [8]) was “increased” and the “GCase levels in lung” value (wild-type GCase; [8]) was “increased”. For the same compound, the “GCase levels in spleen” value (wild-type GCase; [8]) was “increased” and the “wild-type GCase activity, dose response” value (wild-type GCase; separate experiment, mice treated with 0, 1, 10, or 100 mg/kg/day) was “linear dose-response increase”.

Work on `CCCCCCCCc1cn2c(n1)[C@H](O)[C@@H](O)[C@H](O)[C@H]2CO` [(5R,6R,7S,8S)-5-Hydroxymethyl-2-n-octyl-5,6,7,8-tetrahydroimidazo[1,2-a]pyridine-6,7,8-triol] yielded an IC50 (GCase [5]) of about 0.07 nM.

For `OC[C@H]1NC[C@H](O)[C@@H](O)[C@H]1O` [DGJ, 1-deoxygalactonojirimycin], the “α-galactosidase A activity in white blood cells” value (α-galactosidase A) is given as “dose-dependent increase”.

With `CC(C)(C)C#Cc1cn2c(n1)[C@H](OCc1ccccc1)[C@@H](OCc1ccccc1)[C@H](OCc1ccccc1)[C@H]2COCc1ccccc1` [(5R,6R,7S,8S)-6,7,8-Tris(benzyloxy)-5-[(benzyloxy)methyl]-2-(3,3-dimethylbyt-1-ynyl)-5,6,7,8-tetrahydroimidazo[1,2-a]pyridine] the IC50 (GCase [6]) was about 1.1 nM.

In the case of `O[C@H]1[C@H](O)[C@@H](O)[C@@H]2O[C@@H]2[C@@H]1O` [CBE, conduritol-β-epoxide], the “α-synuclein in the brain” value (α-synuclein [7]) is reported as “resulted in accumulation of α-synuclein in the brain”.

With `CC(C)(C)CCc1cn2c(n1)[C@H](O)[C@@H](O)[C@H](O)[C@H]2CO` [(5R,6R,7S,8S)-5-Hydroxymethyl-2-(3,3-dimethylbutyl)-5,6,7,8-tetrahydro-imidazo[1,2-a]pyridine-6,7,8-triol] the IC50 (GCase [5]) was about 0.03 nM.
